The record followed here is patent publication US10266526B2, “Substituted 1,2,3-triazoles as SMYD inhibitors for treating cancer” (EPIZYME, INC., priority 2014, dated 2019).

The assay has as its target SMYD2 (Homo sapiens (Human), UniProt Q9NRG4). Description: SMYD2 biochemical assay (SMYD2 enzyme assay on peptide substrate, 3H-SAM Flashplate). As to conditions: read-out: SMYD2 Biochem IC50; IC50 values are an average of n = 1 to n = 50.

SMILES strings stand for the structures.

Sequence of SMYD2 (Q9NRG4 whole entry): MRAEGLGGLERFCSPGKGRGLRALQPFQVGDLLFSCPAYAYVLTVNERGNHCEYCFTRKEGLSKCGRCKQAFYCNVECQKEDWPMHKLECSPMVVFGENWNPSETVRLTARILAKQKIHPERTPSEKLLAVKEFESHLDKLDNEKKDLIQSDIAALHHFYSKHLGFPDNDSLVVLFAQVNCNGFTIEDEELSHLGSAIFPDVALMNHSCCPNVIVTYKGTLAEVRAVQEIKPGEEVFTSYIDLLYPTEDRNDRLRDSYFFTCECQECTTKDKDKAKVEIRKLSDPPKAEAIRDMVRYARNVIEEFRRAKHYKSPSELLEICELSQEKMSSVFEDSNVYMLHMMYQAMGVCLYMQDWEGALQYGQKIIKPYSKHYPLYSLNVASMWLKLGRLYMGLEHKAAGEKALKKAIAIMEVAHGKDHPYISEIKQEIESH
Text: S-adenosylmethionine (SAM), S-adenosylhomocysteine (SAH), bicine, Tween20, dimethylsulfoxide (DMSO), bovine skin gelatin (BSG), and Tris(2-carboxyethyl)phosphine hydrochloride (TCEP) were purchased from Sigma-Aldrich at the highest level of purity possible. ^3H-SAM was purchase from American Radiolabeled Chemicals with a specific activity of 80 Ci/mmol. 384-well streptavidin Flashplates were purchased from PerkinElmer.
The sequence was [sequence](K-Biot)-amide.
Production of Recombinant SMYD2 Enzymes for Biochemical Enzyme Activity Assays
Full length SMYD2 (NP_064582.2) was cloned into a pFastbac-Htb-lic vector with an N-terminal His6 tag and FLAG tag, preceded by a TEV protease cleavage site. The protein was expressed in Sf9 insect cells. Cells were resuspended in lysis buffer (25 mM HEPES-NaOH, pH 7.5, 200 mM NaCl, 5% glycerol, and 5 mM (3-ME) and lysed by sonication. The protein was purified by Ni-NTA (Qiagen), followed by TEV cleavage to remove the His6 tag, subtractive Ni-NTA (Qiagen), and gel filtration chromatography using an S200 column (GE Healthcare). Purified protein was stored in 20 mM Tris-HCl, pH 8.0, 100 mM NaCl, and 1 mM TCEP.
General Procedure for SMYD2 Enzyme Assays on Peptide Substrates
The assays were all performed in a buffer consisting of 20 mM Bicine (pH=7.6), 1 mM TCEP, 0.005% Bovine Skin Gelatin, and 0.002% Tween20, prepared on the day of use. […] DMSO (1 ul) was added to Columns 11, 12, 23, 24, rows A-H for the maximum signal control and 1 ul of SAH, a known product and inhibitor of SMYD2, was added to columns 11, 12, 23, 24, rows I-P for the minimum signal control. A cocktail (40 ul) containing the SMYD2 enzyme was added by Multidrop Combi (Thermo-Fisher). The compounds were allowed to incubate with SMYD2 for 30 min at room temperature, then a cocktail (10 ul) containing ^3H-SAM and peptide was added to initiate the reaction (final volume=51 ul). […] The assays were stopped by the addition of non-radioactive SAM (10 ul) to a final concentration of 600 uM, which dilutes the ^3H-SAM to a level where its incorporation into the peptide substrate is no longer detectable. 50 ul of the reaction in the 384-well polypropylene plate was then transferred to a 384-well Flashplate and the biotinylated peptides were allowed to bind to the streptavidin surface for at least 1 hour before being washed three times with 0.1% Tween20 in a Biotek ELx405 plate washer. The plates were then read in a PerkinElmer TopCount plate reader to measure the quantity of ^3H-labeled peptide bound to the Flashplate surface, measured as disintegrations per minute (dpm) or alternatively, referred to as counts per minute (cpm).
Where dpm=disintegrations per minute, cmpd=signal in assay well, and min and max are the respective minimum and maximum signal controls.
Where top and bottom are the normally allowed to float, but may be fixed at 100 or 0 respectively in a 3-parameter fit. The Hill Coefficient normally allowed to float but may also be fixed at 1 in a 3-parameter fit. I is the compound concentration.

Consider `CCC(c1cccc(F)c1)N1CC(NC(=O)c2cn(C3CC3)nn2)C1` (stereo not drawn) [compound 711, 1-cyclopropyl-N-{1-[1-(3-fluorophenyl)propyl]azetidin-3-yl}-1H-1,2,3-triazole-4-carboxamide], for which the half-inhibitory concentration (IC50) was determined as 1010 nM. The result for `COc1ccc2c(c1Cl)CCC2N1CC(NC(=O)c2cn(C3CC3)nn2)C1` (stereo not drawn) [compound 713, N-[1-(4-chloro-5-methoxy-2,3-dihydro-1H-inden-1-yl)azetidin-3-yl]-1-cyclopropyl-1H-1,2,3-triazole-4-carboxamide] reads 12900 nM.

As to `CC(c1cc(F)cc(Cl)c1)N1CC(NC(=O)c2cn(C3CC3)nn2)C1` (stereo not drawn) [compound 714, N-{1-[1-(3-chloro-5-fluorophenyl)ethyl]azetidin-3-yl}-1-cyclopropyl-1H-1,2,3-triazole-4-carboxamide], the IC50 turned out to be 2130 nM. The figure for `CC(c1ncccn1)N1CC(NC(=O)c2cn(C3CC3)nn2)C1` (stereo not drawn) [compound 715, 1-cyclopropyl-N-{1-[1-(pyrimidin-2-yl)ethyl]azetidin-3-yl}-1H-1,2,3-triazole-4-carboxamide] is 1940 nM.

For `CC(c1nccs1)N1CC(NC(=O)c2cn(C3CC3)nn2)C1` (stereo not drawn) [compound 716, 1-cyclopropyl-N-{1-[1-(1,3-thiazol-2-yl)ethyl]azetidin-3-yl}-1H-1,2,3-triazole-4-carboxamide], the IC50 worked out at 30700 nM. With `COCCn1cc(CN2CC(NC(=O)c3cn(C4CC4)nn3)C2)cn1` [compound 717, 1-cyclopropyl-N-(1-{[1-(2-methoxyethyl)-1H-pyrazol-4-yl]methyl}azetidin-3-yl)-1H-1,2,3-triazole-4-carboxamide], the IC50 amounted to 3060 nM. The result for `Cc1nc(C)c(C(C)N2CC(NC(=O)c3cn(C4CC4)nn3)C2)s1` (stereo not drawn) [compound 718, 1-cyclopropyl-N-{1-[1-(dimethyl-1,3-thiazol-5-yl)ethyl]azetidin-3-yl}-1H-1,2,3-triazole-4-carboxamide] reads 2950 nM; that for `O=C(NC1CN(C2CCc3cc(Cl)ccc32)C1)c1cn(C2CC2)nn1` (stereo not drawn) [compound 719, N-[1-(5-chloro-2,3-dihydro-1H-inden-1-yl)azetidin-3-yl]-1-cyclopropyl-1H-1,2,3-triazole-4-carboxamide], 4410 nM.

On to `C[C@H](c1ccccc1)N1CC(NC(=O)c2cn(C3CC3)nn2)C1` [compound 720, 1-cyclopropyl-N-{1-[(1R)-1-phenylethyl]azetidin-3-yl}-1H-1,2,3-triazole-4-carboxamide], for which the IC50 came out at 23300 nM. With `CC(C)N1CC(NC(=O)c2cn(CCN)nn2)C1` [compound 723, 1-(2-aminoethyl)-N-[1-(propan-2-yl)azetidin-3-yl]-1H-1,2,3-triazole-4-carboxamide], the IC50 was greater than 50000 nM. The result for `COc1ccnc(C(C)N2CC(NC(=O)c3cn(C4CC4)nn3)C2)c1` (stereo not drawn) [compound 724, 1-cyclopropyl-N-{1-[1-(4-methoxypyridin-2-yl)ethyl]azetidin-3-yl}-1H-1,2,3-triazole-4-carboxamide] reads 1270 nM; that for `COc1cccnc1C(C)N1CC(NC(=O)c2cn(C3CC3)nn2)C1` (stereo not drawn) [compound 725, 1-cyclopropyl-N-{1-[1-(3-methoxypyridin-2-yl)ethyl]azetidin-3-yl}-1H-1,2,3-triazole-4-carboxamide], 1020 nM. The result for `CNC(=O)c1cccc(CN2CC(NC(=O)c3cn(C4CC4)nn3)C2)c1` [compound 726, 1-cyclopropyl-N-(1-{[3-(methylcarbamoyl)phenyl]methyl}azetidin-3-yl)-1H-1,2,3-triazole-4-carboxamide] reads 10700 nM. The figure for `NC(=O)c1cccc(CN2CC(NC(=O)c3cn(C4CC4)nn3)C2)c1` [compound 727, N-{1-[(3-carbamoylphenyl)methyl]azetidin-3-yl}-1-cyclopropyl-1H-1,2,3-triazole-4-carboxamide] is 7300 nM; for `CC(c1ccc(N2CCOCC2)cc1)N1CC(NC(=O)c2cn(C3CC3)nn2)C1` (stereo not drawn) [compound 728, 1-cyclopropyl-N-(1-{1-[4-(morpholin-4-yl)phenyl]ethyl}azetidin-3-yl)-1H-1,2,3-triazole-4-carboxamide] it is 755 nM.

In the case of `COc1cccc(C(N2CC(NC(=O)c3cn(C4CC4)nn3)C2)C(F)(F)F)c1` (stereo not drawn) [compound 729, 1-cyclopropyl-N-{1-[2,2,2-trifluoro-1-(3-methoxyphenyl)ethyl]azetidin-3-yl}-1H-1,2,3-triazole-4-carboxamide], the IC50 was greater than 50000 nM. The result for `CC(c1cccc(Oc2ccccc2)c1)N1CC(NC(=O)c2cn(C3CC3)nn2)C1` (stereo not drawn) [compound 730, 1-cyclopropyl-N-{1-[1-(3-phenoxyphenyl)ethyl]azetidin-3-yl}-1H-1,2,3-triazole-4-carboxamide] reads 3040 nM; that for `O=C(NC1CN(C(c2ccccc2)C2CCC2)C1)c1cn(C2CC2)nn1` (stereo not drawn) [compound 731, N-{1-[cyclobutyl(phenyl)methyl]azetidin-3-yl}-1-cyclopropyl-1H-1,2,3-triazole-4-carboxamide], 1520 nM. The figure for `COc1cc(C(C)N2CC(NC(=O)c3cn(C4CC4)nn3)C2)ccc1F` (stereo not drawn) [compound 732, 1-cyclopropyl-N-{1-[1-(4-fluoro-3-methoxyphenyl)ethyl]azetidin-3-yl}-1H-1,2,3-triazole-4-carboxamide] is 2590 nM; for `Cn1cnc(CN2CC(NC(=O)c3cn(C4CC4)nn3)C2)c1` [compound 733, 1-cyclopropyl-N-{1-[(1-methyl-1H-imidazol-4-yl)methyl]azetidin-3-yl}-1H-1,2,3-triazole-4-carboxamide] it is 6800 nM; for `O=C(NC1CN(Cc2cccc(OCCO)c2)C1)c1cn(C2CC2)nn1` [compound 734, 1-cyclopropyl-N-(1-{[3-(2-hydroxyethoxy)phenyl]methyl}azetidin-3-yl)-1H-1,2,3-triazole-4-carboxamide] it is 2310 nM. The result for `CNCCOc1cccc(CN2CC(NC(=O)c3cn(C4CC4)nn3)C2)c1` [compound 735, 1-cyclopropyl-N-[1-({3-[2-(methylamino)ethoxy]phenyl}methyl)azetidin-3-yl]-1H-1,2,3-triazole-4-carboxamide] reads 2330 nM; that for `CC(c1cccc(OCc2ccccc2)c1)N1CC(NC(=O)c2cn(C3CC3)nn2)C1` (stereo not drawn) [compound 737, N-(1-{1-[3-(benzyloxy)phenyl]ethyl}azetidin-3-yl)-1-cyclopropyl-1H-1,2,3-triazole-4-carboxamide], 718 nM. Take `CC(c1ccc(Oc2ccccc2)cc1)N1CC(NC(=O)c2cn(C3CC3)nn2)C1` (stereo not drawn) [compound 739, 1-cyclopropyl-N-{1-[1-(4-phenoxyphenyl)ethyl]azetidin-3-yl}-1H-1,2,3-triazole-4-carboxamide]: the IC50 was 1070 nM. On to `O=C(NC1CN(C2CCc3cc(F)ccc32)C1)c1cn(C2CC2)nn1` (stereo not drawn) [compound 740, 1-cyclopropyl-N-[1-(5-fluoro-2,3-dihydro-1H-inden-1-yl)azetidin-3-yl]-1H-1,2,3-triazole-4-carboxamide], for which the IC50 came out at 6960 nM. The figure for `CC(c1ccccc1C(F)(F)F)N1CC(NC(=O)c2cn(C3CC3)nn2)C1` (stereo not drawn) [compound 741, 1-cyclopropyl-N-(1-{1-[2-(trifluoromethyl)phenyl]ethyl}azetidin-3-yl)-1H-1,2,3-triazole-4-carboxamide] is 1010 nM.

Take `CC(c1c(F)cccc1F)N1CC(NC(=O)c2cn(C3CC3)nn2)C1` (stereo not drawn) [compound 742, 1-cyclopropyl-N-{1-[1-(2,6-difluorophenyl)ethyl]azetidin-3-yl}-1H-1,2,3-triazole-4-carboxamide]: the IC50 is 2850 nM. `CC(c1cccc(Cl)c1Cl)N1CC(NC(=O)c2cn(C3CC3)nn2)C1` (stereo not drawn) [compound 743, 1-cyclopropyl-N-{1-[1-(2,3-dichlorophenyl)ethyl]azetidin-3-yl}-1H-1,2,3-triazole-4-carboxamide]: the IC50 was 488 nM. The result for `CC(c1cnccn1)N1CC(NC(=O)c2cn(C3CC3)nn2)C1` (stereo not drawn) [compound 745, 1-cyclopropyl-N-{1-[1-(pyrazin-2-yl)ethyl]azetidin-3-yl}-1H-1,2,3-triazole-4-carboxamide] reads 7440 nM; that for `CC(c1cc(F)ccc1F)N1CC(NC(=O)c2cn(C3CC3)nn2)C1` (stereo not drawn) [compound 746, 1-cyclopropyl-N-{1-[1-(2,5-difluorophenyl)ethyl]azetidin-3-yl}-1H-1,2,3-triazole-4-carboxamide], 7780 nM; that for `CC(c1ccc(F)cc1)N1CC(NC(=O)c2cn(C3CC3)nn2)C1` (stereo not drawn) [compound 747, 1-cyclopropyl-N-{1-[1-(4-fluorophenyl)ethyl]azetidin-3-yl}-1H-1,2,3-triazole-4-carboxamide], 1920 nM.

As for `COc1ccc(C(N2CC(NC(=O)c3cn(C4CC4)nn3)C2)C(F)(F)F)cc1` (stereo not drawn) [compound 749, 1-cyclopropyl-N-{1-[2,2,2-trifluoro-1-(4-methoxyphenyl)ethyl]azetidin-3-yl}-1H-1,2,3-triazole-4-carboxamide], the IC50 was determined as 565 nM. The figure for `COc1cccc(O)c1C(C)N1CC(NC(=O)c2cn(C3CC3)nn2)C1` (stereo not drawn) [compound 750, 1-cyclopropyl-N-{1-[1-(2-hydroxy-6-methoxyphenyl)ethyl]azetidin-3-yl}-1H-1,2,3-triazole-4-carboxamide] is 1280 nM; for `NCc1cccc(CN2CC(NC(=O)c3cn(C4CC4)nn3)C2)c1` [compound 754, N-(1-{[3-(aminomethyl)phenyl]methyl}azetidin-3-yl)-1-cyclopropyl-1H-1,2,3-triazole-4-carboxamide] it is 7340 nM.

For the compound `O=C(NC1CN(C2(c3ccccc3)CC2)C1)c1cn(C2CC2)nn1` [compound 755, 1-cyclopropyl-N-[1-(1-phenylcyclopropyl)azetidin-3-yl]-1H-1,2,3-triazole-4-carboxamide], the IC50 worked out at 30500 nM. Regarding `CNCCN1CCC(CN2CC(NC(=O)c3cn(C4CC4)nn3)C2)C1=O` (stereo not drawn) [compound 756, 1-cyclopropyl-N-[1-({1-[2-(methylamino)ethyl]-2-oxopyrrolidin-3-yl}methyl)azetidin-3-yl]-1H-1,2,3-triazole-4-carboxamide], the IC50 stood at 17000 nM.
